Source: article PMC4354951 (European journal of medicinal chemistry, 2008)
pEC50: −log10 of the molar value.

Experiments:
[1] = Chemical hydrolysis under gastric juice-like conditions; assay type: physicochemical; settings: pH 1.4, 37 °C
[2] = Stability in human blood serum, Method A; assay type: in vitro ADME; settings: half-life vs ATP
human NTPDase1 = target: T1, human NTPDase1 (Homo sapiens, UniProt P49961); assay: Hydrolysis by NTPDase1; assay type: biochemical; settings: 100 μM substrate; relative to ATP hydrolysis (100%)
T1 sequence (P49961 1-510): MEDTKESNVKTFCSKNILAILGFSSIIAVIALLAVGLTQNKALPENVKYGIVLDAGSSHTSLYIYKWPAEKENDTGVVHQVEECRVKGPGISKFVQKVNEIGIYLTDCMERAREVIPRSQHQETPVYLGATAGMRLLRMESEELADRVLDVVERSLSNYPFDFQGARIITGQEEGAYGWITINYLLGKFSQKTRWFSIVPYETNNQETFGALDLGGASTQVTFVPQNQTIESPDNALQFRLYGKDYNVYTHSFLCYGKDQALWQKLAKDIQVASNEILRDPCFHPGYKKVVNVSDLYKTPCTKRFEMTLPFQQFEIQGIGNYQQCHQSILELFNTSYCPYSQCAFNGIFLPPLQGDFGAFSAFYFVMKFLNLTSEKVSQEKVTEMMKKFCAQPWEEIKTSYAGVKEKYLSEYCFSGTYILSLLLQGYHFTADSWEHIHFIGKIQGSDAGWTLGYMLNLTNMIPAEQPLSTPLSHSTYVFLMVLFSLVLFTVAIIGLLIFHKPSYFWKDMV

human NTPDase3 = target: T2, human NTPDase3 (Homo sapiens, UniProt O75355); assay: Hydrolysis by NTPDase3; assay type: biochemical; settings: 100 μM substrate; relative to ATP hydrolysis (100%)
T2 sequence (O75355 1-529): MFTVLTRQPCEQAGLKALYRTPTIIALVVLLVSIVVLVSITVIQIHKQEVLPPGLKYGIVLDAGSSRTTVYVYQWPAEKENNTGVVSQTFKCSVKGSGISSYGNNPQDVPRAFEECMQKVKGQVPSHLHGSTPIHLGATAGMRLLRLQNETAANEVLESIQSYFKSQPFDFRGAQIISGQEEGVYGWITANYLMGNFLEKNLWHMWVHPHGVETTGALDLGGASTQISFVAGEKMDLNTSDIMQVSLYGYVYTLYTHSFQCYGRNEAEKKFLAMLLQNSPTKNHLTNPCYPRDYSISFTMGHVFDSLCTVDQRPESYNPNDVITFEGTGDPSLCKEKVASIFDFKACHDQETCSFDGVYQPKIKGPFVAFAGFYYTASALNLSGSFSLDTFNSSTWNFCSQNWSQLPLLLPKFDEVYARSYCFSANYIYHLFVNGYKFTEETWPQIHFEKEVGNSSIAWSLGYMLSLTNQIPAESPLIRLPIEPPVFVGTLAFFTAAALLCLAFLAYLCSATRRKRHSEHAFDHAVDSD

human NTPDase8 = target: T3, human NTPDase8 (Homo sapiens, UniProt Q5MY95); assay: Hydrolysis by NTPDase8; assay type: biochemical; settings: 100 μM substrate; relative to ATP hydrolysis (100%)
T3 sequence (Q5MY95 1-495): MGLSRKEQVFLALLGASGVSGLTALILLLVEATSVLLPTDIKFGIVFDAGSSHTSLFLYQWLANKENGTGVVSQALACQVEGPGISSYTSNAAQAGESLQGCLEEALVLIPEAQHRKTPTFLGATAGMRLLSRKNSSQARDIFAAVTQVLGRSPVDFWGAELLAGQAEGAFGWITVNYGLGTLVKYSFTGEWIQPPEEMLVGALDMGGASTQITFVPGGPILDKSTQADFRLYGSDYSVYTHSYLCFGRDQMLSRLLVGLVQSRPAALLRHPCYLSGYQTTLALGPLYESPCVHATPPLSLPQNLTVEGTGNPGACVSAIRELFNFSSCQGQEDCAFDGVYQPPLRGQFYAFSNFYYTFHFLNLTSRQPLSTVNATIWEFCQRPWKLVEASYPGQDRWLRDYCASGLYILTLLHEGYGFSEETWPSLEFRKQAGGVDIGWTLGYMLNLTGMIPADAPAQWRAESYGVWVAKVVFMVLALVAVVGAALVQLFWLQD

turkey P2Y1 receptor = turkey P2Y1 receptor (Meleagris gallopavo, UniProt P49652); assay type: cell-based; settings: 1321N1 cell transfectants
Sequence of turkey P2Y1 receptor (P49652 whole entry): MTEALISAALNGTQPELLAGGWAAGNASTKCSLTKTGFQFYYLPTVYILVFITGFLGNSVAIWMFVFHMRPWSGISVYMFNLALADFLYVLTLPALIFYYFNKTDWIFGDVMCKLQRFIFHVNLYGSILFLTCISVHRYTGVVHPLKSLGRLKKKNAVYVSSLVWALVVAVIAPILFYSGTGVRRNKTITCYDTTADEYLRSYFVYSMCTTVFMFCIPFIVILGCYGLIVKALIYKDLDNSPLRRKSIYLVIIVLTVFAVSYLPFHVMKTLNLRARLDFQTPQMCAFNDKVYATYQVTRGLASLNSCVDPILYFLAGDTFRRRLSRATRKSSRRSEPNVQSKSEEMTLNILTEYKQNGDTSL

human P2Y2 receptor = human P2Y2 receptor (Homo sapiens, UniProt P41231); assay: Increase in [Ca2+]i in 1321N1 astrocytoma cells expressing P2Y2 receptor; assay type: cell-based
Sequence of human P2Y2 receptor (P41231 whole entry): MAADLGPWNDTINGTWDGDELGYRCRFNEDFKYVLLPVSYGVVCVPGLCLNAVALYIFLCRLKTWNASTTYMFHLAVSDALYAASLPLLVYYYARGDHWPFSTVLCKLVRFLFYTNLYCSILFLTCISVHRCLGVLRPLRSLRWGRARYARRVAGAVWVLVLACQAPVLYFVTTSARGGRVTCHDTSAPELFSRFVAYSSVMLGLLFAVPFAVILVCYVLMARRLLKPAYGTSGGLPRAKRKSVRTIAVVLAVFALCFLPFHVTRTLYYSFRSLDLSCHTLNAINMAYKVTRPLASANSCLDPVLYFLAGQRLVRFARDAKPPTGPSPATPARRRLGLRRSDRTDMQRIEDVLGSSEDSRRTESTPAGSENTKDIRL

human P2Y4 receptor = human P2Y4 receptor (Homo sapiens, UniProt P51582); assay: Increase in [Ca2+]i in 1321N1 astrocytoma cells expressing P2Y4 receptor; assay type: cell-based
Sequence of human P2Y4 receptor (P51582 whole entry): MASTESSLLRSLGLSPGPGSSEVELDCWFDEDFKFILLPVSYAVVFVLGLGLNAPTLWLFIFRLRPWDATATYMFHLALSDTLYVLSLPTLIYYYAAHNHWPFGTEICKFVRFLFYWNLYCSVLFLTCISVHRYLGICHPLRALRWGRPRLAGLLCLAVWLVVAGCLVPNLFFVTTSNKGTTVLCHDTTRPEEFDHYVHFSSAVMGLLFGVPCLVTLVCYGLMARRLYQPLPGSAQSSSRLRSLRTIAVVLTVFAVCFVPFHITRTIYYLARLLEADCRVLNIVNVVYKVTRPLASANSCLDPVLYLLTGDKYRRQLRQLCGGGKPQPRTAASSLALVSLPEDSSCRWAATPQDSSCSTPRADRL

rat P2Y6 receptor = rat P2Y6 receptor (Rattus norvegicus, UniProt Q63371); assay: Increase in [Ca2+]i in 1321N1 astrocytoma cells expressing P2Y6 receptor; assay type: cell-based
Sequence of rat P2Y6 receptor (Q63371 whole entry): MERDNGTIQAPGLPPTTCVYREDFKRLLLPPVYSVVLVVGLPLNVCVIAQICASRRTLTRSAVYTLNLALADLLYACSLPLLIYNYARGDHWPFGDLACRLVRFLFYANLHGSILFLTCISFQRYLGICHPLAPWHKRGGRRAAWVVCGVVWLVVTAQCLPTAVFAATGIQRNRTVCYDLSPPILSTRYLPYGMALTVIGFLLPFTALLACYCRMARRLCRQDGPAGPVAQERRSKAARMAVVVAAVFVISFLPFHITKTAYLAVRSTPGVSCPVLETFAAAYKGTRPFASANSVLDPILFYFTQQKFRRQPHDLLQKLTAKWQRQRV

[3] = pKa and degree of ionization of phosphate/phosphonate; assay type: physicochemical; settings: physiological conditions, pH 7.4
ecto-5′-nucleotidases = settings: muscle strip preparations, 60 min incubation ref 21; cited from earlier work
P2Y1R = settings: cited from earlier work
P2X1R = settings: cited from earlier work
P2X2/3Rs = settings: cited from earlier work
[4] = test system: 1321N1 astrocytoma and C6 glioma cells; settings: via NPPs and CD73 ref 39; cited from earlier work
[5] = pH 1.4, 37 °C ref 30; cited from earlier work
perfused rat pancreas = perfused rat pancreas ref 31, cited from earlier work
[6] = physiological pH ref 30; cited from earlier work
P2Y2R = settings: cited from earlier work

## CSc1nc(N)c2ncn([C@@H]3O[C@H](COP(=O)(O)OP(=O)(O)CP(=O)(O)O)[C@@H](O)[C@H]3O)c2n1 [compound 2, 2-MeS–adenosine-5′-O-triphosphate-β,γ-CH2]
[1]
  improvement of chemical stability as compared to 1: ~11 fold
[2]
  enhancement of the metabolic stability of ATP: ≥ 3.5 fold
Human NTPDase1
  Relative activity of NTPDase1: 7–8%
Human NTPDase3
  Relative activity of NTPDase3: 7–8%
Human NTPDase8
  Relative activity of NTPDase8: 7–8%
Turkey P2Y1 receptor
  agonist activity at P2Y1R: potent P2Y1R agonists
Human P2Y2 receptor
  pEC50: < 4.00
Human P2Y2 receptor; 1321N1 cell transfectants
  agonist activity at P2Y2R: inactivity
Human P2Y4 receptor
  pEC50: < 4.00
Rat P2Y6 receptor
  pEC50: < 4.00
[3]
  fraction ionized: 9%
ecto-5′-nucleotidases
  degradation by ecto-5′-nucleotidases: no degradation

## Nc1ncnc2c1ncn2[C@@H]1O[C@H](COP(=O)(O)OP(=O)(O)CP(=O)(O)O)[C@@H](O)[C@H]1O [β,γ-CH2–ATP]
ecto-5′-nucleotidases
  degradation by ecto-5′-nucleotidases: no degradation
P2Y1R
  activation of P2Y1Rs: did not activate
P2Y1R; responses elicited by 2-MeS–ADP ref 48
  antagonism at P2Y1R: weak competitive antagonist
P2X1R
  activity at P2X1R: P2X1R agonist
P2X2/3Rs
  activity at P2X2/3Rs: weak agonist
[4]
  metabolism in cells: rapidly metabolized to adenosine

## 2-MeS–ATP-α-B [compound 1]
[5]
  t1/2 of acidic hydrolysis: 5.9 h
Perfused rat pancreas
  enhancement of insulin secretion as compared to basal secretion: ninefold
Perfused rat pancreas; read-out: EC50 of insulin secretion
  pEC50: 7.55
[6]
  t1/2 at physiological pH: 1395 h
P2Y2R
  activity at P2Y2R: very weak agonists
